{"source": "patent US10556926B2", "about": "“Synthetic artificial peptides with antimicrobial effect” (priority 2014, dated 2020)", "key": {"E. coli DH5α": {"system": "E. coli DH5α", "settings": "DH5α, 18 h", "method": "(§1) The minimum inhibitory concentration (MIC) of the peptides was carried out by way of example against gram(−) E. coli DH5α (and gram(+) Staphylococcus xylosus (both Deutsche Sammlung von Mikroorganismen and Zellkulturen, DSMZ) in a standardized microdilution method according to the general guidelines of the CLSI (Clinical and Laboratory Standards Institute 2006) and EUCAST (European Committee for Antimicrobial Susceptibility Testing of the European Society of Clinical Microbiology and Infectious Diseases 2003) with slight adaptations to the investigation of cationic antimicrobial peptides (Wiegand et al. 2008). The bacteria cells were cultivated in Mueller-Hinton-Boullion (MHB) to an optical density of 0.4 to 0.6 at 600 nm wavelength, corresponding to about 4·10^8 bacteria per ml. Then, the bacteria cultures were diluted to a bacteria concentration of about 1·10^5 bacteria per ml in sterile MHB. Using the peptides, series of 2-fold dilutions starting at 128 μM to the smallest dilution of 0.5 μM in MHB were prepared. The peptide dilutions were mixed with the dilute bacteria cultures in a […] in the chambers of a 96-well polypropylene microtiter plate (Starlab, Hamburg, Germany), so that the peptides were present in an end concentration between 64 μM and 0.25 μM at a bacteria concentration of 5·10^4 bacteria/ml. Sterile MHB served as negative control, and the positive control used as the corresponding bacteria concentration in MHB without the addition of peptide. The microtiter plates were incubated for 18 hours at 37° C. with shaking at 120 rpm in a climatically controlled chamber. After the incubation, the bacteria concentration was determined by renewed absorption measurement at a wavelength of 600 nm."}, "Staphylococcus xylosus": {"system": "Staphylococcus xylosus", "settings": "18 h", "method": "as §1"}, "[1]": {"system": "human histiocytic lymphoma cell line U937", "experiment": "Cytotoxicity, direct membrane damage (CytoTox 96), LD50", "type": "cell-based", "settings": "U937, two hours at 37° C., 0.25-64 μM", "method": "The direct membrane damage was investigated with the help of the CytoTox 96 Non-Radioactive Cytotoxicity Assay (Promega, Mannheim, Germany). For this purpose, the cells were sedimented at 100 g for ten minutes at 4° C., and 50 μl of the resulting culture supernatant were added to 50 μl of the CytoTox substrate mix. After an incubation time of 30 minutes in the dark at room temperature, 50 μl of the CytoTox stopping solution were added to the sample and the absorption was measured at 490 nm. To determine the LD50 value, the measurement value of the negative control was deducted from the absorption values and divided by the measurement value of the permeabilization control. The calculated values were plotted graphically against the peptide concentration and fitted using the Origin pro 8.1 G Software according to a sigmoidal model and the LD50 values were ascertained from this. The calculation was carried out analogously to example 5 by reference to the solution of equation 5.1 for the case y=50, where y in this case corresponds to the relative cytotoxicity in percent and x corresponds to the peptide concentration in μM. Representative graphical evaluations of LD50 values are shown in FIG. 6 by reference to the measurement results for the reference peptides BMAP-27, protamine and KL-helix, and also the peptide O1 according to the invention."}, "[2]": {"system": "human histiocytic lymphoma cell line U937", "experiment": "Long-term growth inhibition, minimum toxic concentration (MTC)", "method": "The cytotoxic potential of the antimicrobial peptides was determined by way of example by reference to the human histiocytic lymphoma cell line U937 (DSMZ). The influence of the peptides on the permeability of the cell membrane and their longer-term growth-inhibiting effect was investigated. 15 ml of RPMI 1640 medium with 2 mM glutamine and 10% FCS (Biochrom, Berlin, Germany) were inoculated with 1·10^5 cells per ml and cultivated for three days at 37° in T75 cell culture bottles (TPP, Trasadingen, Switzerland) with constant gassing with 5% CO2 in a climatically controlled chamber. The medium was admixed with 10 U/ml penicillin and […] streptomycin (both AppliChem, Darmstadt, Germany) to avoid bacterial contaminations, with no further antibiotics being added during the subsequent recultivation. Before each experiment, the cells were washed by centrifugation at 100 g for five minutes and subsequent resuspension in RPMI 1640 medium with 2 mM glutamine and 10% FCS in each case two times and adjusted to a concentration of 1·10^5 cells per ml. Finally, in each case 100 μl of the U937 cells were transferred to the reaction chambers of a sterile 96-well polypropylene microtiter plate and admixed with in each case 100 μl of a prediluted antimicrobial peptide in RPMI 1640 medium without antibiotic addition, such that end concentrations of in each case 5·10^4 cells per ml at peptide concentrations between 0.25 μM and 64 μM were present. The negative control used was samples without antimicrobial peptide, while Triton X-100 (AppliChem) was used in an end concentration of 5% as positive control for the permeabilization. The samples were cultivated for two hours at 37° C. and with continuous gassing with 5% CO2 in a climatically controlled chamber. Then, in each case 100 μl of each sample were removed and transferred to new sterile microtiter plates for determining the direct membrane damage. The remaining 100 μl of the samples were cultivated for at least four further days.\nFor this purpose, 10 μl of lysing solution were added to in each case 100 μl of cell suspension and incubated for 60 minutes at 37° C. Then, the cell culture supernatants were investigated as described above. The lowest peptide concentration at which complete suppression of the cell growth was established after four days was stipulated as the minimum toxic concentration (MTC)."}, "human cell line U937": {"system": "human cell line U937", "experiment": "Mixed culture experiment (bacterially contaminated cell culture), eukaryotic cells", "type": "cell-based", "settings": "25 and 50 μM peptide, two hours, with S. xylosus", "method": "Destruction of the bacteria membranes by the antimicrobial peptides was investigated in a flow cytometric method with the help of a living/dead staining method in combination with an internal calibration and counting system. For this purpose, SYBR Green I (Sigma-Aldrich) was used as total staining and propidium iodide (Sigma-Aldrich) was used as contrast staining for membrane-damaged bacteria. […] The flow analysis was carried out on a Cytomics FC500 Instrument (Beckmann Coulter, Munich, Germany) equipped with an argon laser (488 nm) and the corresponding emission filters for SYBR Green I (525 nm) and propidium iodide (620 nm). […] Then, the mixture was incubated for 10 min in the dark at room temperature and then measured by flow cytometry. The number of events in each gate was captured and evaluated using the CXP Analyses 2.2 Software. The total number of living and dead bacteria was calculated. […]\nThe ability of the antimicrobial peptides to be used as a therapeutic active ingredient was investigated by reference to its selective antimicrobial properties in model mixed culture experiments. […] Then, the mixed cell cultures were stained and measured by flow cytometry as described in example 3, the measurement scale being adapted to the measurement of the larger eukaryotic cells."}}, "note": "No end group written: not given here.", "data": [{"sequence": "KKKIIIIIIKKK [O1]", "values": [{"measurement": "MIC E. coli", "setting": "E. coli DH5α", "value": 8, "unit": "µM"}, {"measurement": "MIC S. xylosus", "setting": "Staphylococcus xylosus", "value": 0.5, "unit": "µM"}, {"measurement": "Toxicity LD50", "setting": "[1]", "value": ">64", "unit": "µM"}, {"measurement": "Toxicity MTC (minimum toxic concentration)", "setting": "[2]", "value": ">64", "unit": "µM"}, {"measurement": "Effect on eukaryotic U937 cells in mixed culture", "setting": "human cell line U937", "value": "remain uninfluenced"}]}]}
